{"source": "patent US20250195508A1", "about": "“COMPOUNDS AND COMPOSITIONS FOR ANITMALARIAL THERAPEUTIC AND PROPHYLACTIC USE” (UNIVERSITY OF CENTRAL FLORIDA RESEARCH FOUNDATION, INC., priority 2022, published 2025)", "data": [{"system": "P. falciparum Dd2", "assay": "Rate of killing assay", "format": "cell-based", "details": "10×EC50, 12-hour exposure then wash off", "method": "Asynchronous P. falciparum Dd2 cultures were plated at 1% parasitemia, 4% hematocrit into a 24-well plate, incubated at 37° C. in 5% CO2. Wells were treated with 10×EC50 of compound for 12, 24, or 48 hours before the compound was removed. Every 24 hours thereafter for 4 days total, culture samples were washed in 0.5% BSA and stained with 1×SYBR Green I and 60 μM MitoTracker Deep Red FM for 20 minutes at 37° C. After another wash in 0.5% BSA, samples were resuspended in PBS and analyzed via flow cytometry with a CytoFLEX S™, with 100,000 events recorded per sample. For gating, the following controls were used: uninfected RBCs, untreated culture, DHA-treated culture, and untreated culture without MitoTracker stain. Viable parasite percentage was determined by finding the fraction of SYBR Green/MitoTracker double positive cells from the total events. Analysis was performed with FlowJo software Version 10.\nAsynchronous cultures of P. falciparum Dd2 parasites were treated with 10×EC50 of the indicated compound for 12 hours prior to compound wash off. Flow cytometry with SYBR Green I (nuclear dye) and Mitotracker Deep Red FM (mitochondria staining) was done after compound wash-off every 24 hours after for […] (100,000 events/sample) to track parasitemia (data from 3 biological replicates±SEM).", "values": [{"smiles": "C[C@H]1[C@@H](O)O[C@@H]2O[C@@]3(C)CC[C@H]4[C@H](C)CC[C@@H]1[C@@]24OO3", "note": "[dihydroartemisinin (DHA), dihydroartemisinin, reference compound]", "Killing profile": "pronounced irreversible killing"}]}, {"system": "Pb-Luc sporozoites", "assay": "Therapeutic assay, 4-day Peters test against Pb-Luc sporozoites", "format": "in vivo, mice", "details": "4 doses of 15 mg/kg at 6, 18, 30, 42 hours post infection", "method": "(§1) TL5-135 was dissolved or resuspended in a suspending vehicle consisting of 30% DMSO, 1% methylcellulose, 0.5% TWEEN-80, and 68.5% ultrapure water. GNF179 was resuspended in 30% DMSO, 30% PEG400, 5% TWEEN-80, 35% saline, and administered intravenously.\n(§2) For prophylaxis assays, a single dose of […] was administrated 6 hours before infection. For therapeutic assays, in a 4-day's Peters test, 4 doses (each 15 mg/kg) were administrated 6, 18, 30, and 42 hours post infection.\n(§3) The antimalarial activity was measured as a percent reduction in parasitemia from day one until day twelve post-infection.\nHowever, the mice treated with TL5-135 as a therapeutic had about 2.4% parasitemia after 12 days post-infection (all negative control mice died between days 11-13). The parasitemia on day 21 (21 days post-infection) for the group of mice was 35%.\n(§4) Groups of 5 mice were infected with 100,000 Pb-Luc sporozoites by IV injection. Prophylactic (single dose of 50 mg/kg through IV injection, 6 hour before infection) and therapeutic (4-day Peters test, 4 doses of 15 mg/kg each time were administrated post-infection at 6, 18, 30, and 42 hours post infection (hpi) and the activity of the compounds was evaluated. See FIG. 8A. The parasitemia was estimated after flow cytometric enumeration of rodent malaria parasite Pb-Luc-infected red blood cells (RBS) stained with SYBR Green I, from day 3 until 20.\n(§5) TL5-135 and GNF179 antimalarial compounds were tested against Pb-Luc sporozoites. Prophylactic activity (single dose of 15 mg/kg through an IV injection, 6 hours before infection) and therapeutic activity (4-day Peters test, 4 doses of 15 mg/kg each time was administrated at 6, 18, 30, and 42 hpi of the TL5-135 antimalarial compound was evaluated. As before, groups of five mice were infected with 100,000 Pb-Luc sporozoites by IV injection. The parasitemia was estimated after flow cytometric enumeration of rodent malaria parasite Pb-Luc-infected red blood cells (RBS) stained with SYBR Green I, from day 3 until day 20. See FIG. 8B.", "values": [{"smiles": "CC1(C)c2nc(-c3ccc(F)cc3)c(Nc3ccc(Cl)cc3)n2CCN1C(=O)CN", "note": "[GNF179, reference compound]", "Condition of mice after therapeutic treatment": "healthy and without parasites"}]}, {"system": "P. falciparum Dd2", "assay": "72 h SYBR Green I assay (Dd2 Proliferation Assay)", "format": "cell-based", "details": "72 hour SYBR Green I; Table 2; read-out: Dd2 EC50 (nM) ± SD", "method": "(§6) Several analogs were synthesized based on the structure of TL5-135 for further study. […] For the data in Table 1, compounds were subjected to in vitro biochemical kinase assays done using recombinant human ephrin type-A receptor 2 (EPHA2) (expressed in insect cells) in a Z′-LYTE® FRET-based kinase assay. P. falciparum Dd2 EC50 was determined using the standard 72 hour SYBR Green I assay (Dd2 Proliferation Assay) as known in the art. […] The structures of compoundsTL5-134, TL5-139, and TL5-145 are shown below.\n(§7) In vitro biochemical kinase assays were done using recombinant human EPHA2 (expressed in insect cells) in a Z′-LYTE® FRET-based kinase assay. P. falciparum Dd2 EC50 was determined using the standard 72 h SYBR Green I assay.\n(§8) Asynchronous blood stage P. falciparum Dd2 cultures were plated at 1% parasitemia and 1% hematocrit in a 96-well plate and incubated with serial dilutions of compound for 72 hours at 37° C. in 5% CO2. DMSO concentrations were kept at a sub-lethal percentage (<0.2%). Five micromolar chloroquine was used as a negative parasite growth control. Plates were then frozen at −80° C. and thawed, and 100 μL SYBR Green I-containing lysis buffer (20 mM Tris-HCl, 5 mM EDTA, 0.8% Triton X-100, 0.08% saponin, and 0.0001% SYBR Green I) was added to the wells. After incubation for 45 minutes at room temperature protected from light, fluorescence emission was read with a multimode microplate reader, at 485 nm excitation and 530 nm emission. Results were normalized using untreated and chloroquine-treated controls, and EC50 was determined with CDD Vault.\n(§9) To establish the utility of kinase inhibitor compounds synthesized in the Gray laboratory as a source of novel antimalarial activities, the libraries (containing 1,100 compounds) were screened using the well-established SYBR Green I-based fluorescence assay as known in the art. This screen yielded 34 compounds with EC50<500 nM in the CQ^R Dd2 strain. These hits were subjected to counter-screening against human HepG2 cells using CellTiter 96® AQueous (Promega™) MTS-based cell proliferation assay to identify asexual and liver stage antiplasmodial hits.\n(§10) P. falciparum Dd2 EC50 was determined using SYBR Green I assay. For the selectivity index ([…]) cytotoxicity was determined using CellTiter 96® AQueous MTS. The liver stage assay was performed using P. berghei luciferase expressing parasites. All assays were performed with technical quadruplicates and 3 biological replicates. Assays have a Z′ factor >0.7.", "units": {"EC50": "nM"}, "values": [{"smiles": "CCN1CCN(Cc2ccc(NC(=O)c3cc(NC(=O)c4cncc(-c5cccs5)c4)ccc3F)cc2C(F)(F)F)CC1", "note": "[LSW-03-067]", "EC50": "867 ± 68.3"}, {"smiles": "CCN1CCN(Cc2ccc(NC(=O)c3cc(Cl)cc(NC(=O)c4cncc(-c5ccco5)c4)c3)cc2C(F)(F)F)CC1", "note": "[LSW-03-006]", "EC50": "97.2 ± 23.3"}, {"smiles": "CCN1CCN(Cc2ccc(NC(=O)c3cc(Cl)cc(NC(=O)c4cccc(-c5cccs5)c4)c3)cc2C(F)(F)F)CC1", "note": "[LSW-03-015]", "EC50": "314 ± 17.4"}, {"smiles": "O=C(Nc1ccnc(N2CCOCC2)c1)c1cc(Cl)cc(NC(=O)c2cncc(-c3cccs3)c2)c1", "note": "[LSW-03-081]", "EC50": "732 ± 124"}, {"smiles": "O=C(Nc1cccc(C(F)(F)F)c1)c1cc(Cl)cc(NC(=O)c2cncc(-c3cccs3)c2)c1", "note": "[LSW-03-033]", "EC50": "422 ± 36"}, {"smiles": "CCN1CCN(Cc2ccc(NC(=O)c3cc(F)cc(NC(=O)c4cncc(-c5cccs5)c4)c3)cc2C(F)(F)F)CC1", "note": "[LSW-03-054]", "EC50": "99.5 ± 12.7"}, {"smiles": "CCN1CCN(Cc2ccc(NC(=O)c3cc(NC(=O)c4cncc(-c5cccs5)c4)cc(C(F)(F)F)c3)cc2C(F)(F)F)CC1", "note": "[LSW-03-055]", "EC50": "86.6 ± 2.92"}, {"smiles": "CCN1CCN(Cc2ccc(NC(=O)c3cc(Br)cc(NC(=O)c4cncc(-c5cccs5)c4)c3)cc2C(F)(F)F)CC1", "note": "[LSW-03-071]", "EC50": "108 ± 9.08"}, {"smiles": "CCN1CCN(Cc2ccc(NC(=O)c3cc(Cl)cc(NC(=O)c4cncc(C)c4)c3)cc2C(F)(F)F)CC1", "note": "[LSW-03-007]", "EC50": "164 ± 14.7"}, {"smiles": "CCN1CCN(Cc2ccc(NC(=O)c3cc(Cl)cc(NC(=O)c4cncc(-c5cccs5)c4)c3)cc2)CC1", "note": "[LSW-03-030]", "EC50": "99.6 ± 8.6"}, {"smiles": "CCN1CCN(Cc2ccc(NC(=O)c3cc(Cl)cc(NC(=O)c4cncnc4)c3)cc2C(F)(F)F)CC1", "note": "[LSW-03-072]", "EC50": "330 ± 27.4"}, {"smiles": "CCN1CCN(Cc2ccc(NC(=O)c3cc(Cl)cc(NC(=O)c4cncc(-c5ccc(C#N)cc5)c4)c3)cc2C(F)(F)F)CC1", "note": "[LSW-03-077]", "EC50": "43.8 ± 7.9"}, {"smiles": "CCN1CCN(Cc2ccc(NC(=O)c3cc(NC(=O)c4cncc(-c5cccs5)c4)cc(Cl)c3F)cc2C(F)(F)F)CC1", "note": "[LSW-03-059]", "EC50": "104 ± 8.67"}]}, {"system": "P. falciparum Dd2", "assay": "72 h SYBR Green I assay (Dd2 Proliferation Assay)", "format": "cell-based", "details": "Plasmodium falciparum, DD2, 72 h, read-out: Antiplasmodial Dd2 EC50 (nM) ± SD", "method": "as §6, §7, §8, §9, §10", "units": {"EC50": "nM"}, "values": [{"smiles": "CCN1CCN(Cc2ccc(NC(=O)c3cc(NC(=O)c4cncc(-c5cccs5)c4)cc(OC)c3)cc2C(F)(F)F)CC1", "note": "[TL5-134]", "EC50": 341}, {"smiles": "CCN1CCN(Cc2ccc(NC(=O)c3cncc(NC(=O)c4cncc(-c5cccs5)c4)c3)cc2C(F)(F)F)CC1", "note": "[TL5-139]", "EC50": 191}, {"smiles": "CCN1CCN(Cc2ccc(NC(=O)c3ccnc(NC(=O)c4cncc(-c5cccs5)c4)c3)cc2C(F)(F)F)CC1", "note": "[TL5-145]", "EC50": 391}]}, {"system": "P. falciparum Dd2", "assay": "72 h SYBR Green I assay (Dd2 Proliferation Assay)", "format": "cell-based", "details": "Plasmodium falciparum, DD2; 72 hour SYBR Green I; Table 2; read-out: Dd2 EC50 (nM) ± SD", "method": "as §6, §7, §8, §9, §10", "units": {"EC50": "nM"}, "values": [{"smiles": "CCN1CCN(Cc2ccc(NC(=O)c3cc(Cl)cc(NC(=O)c4cccnc4)c3)cc2C(F)(F)F)CC1", "note": "[LSW-03-008]", "EC50": "407 ± 56"}, {"smiles": "CCN1CCN(Cc2ccc(NC(=O)c3cc(Cl)cc(NC(=O)N4CCN(C)CC4)c3)cc2C(F)(F)F)CC1", "note": "[LSW-03-080]", "EC50": 2120}, {"smiles": "CCN1CCN(Cc2ccc(NC(=O)c3cc(Cl)cc(NCc4cncc(-c5cccs5)c4)c3)cc2C(F)(F)F)CC1", "note": "[LSW-03-014]", "EC50": "315 ± 18.7"}]}, {"system": "P. berghei luc sporozoites (Pb-Luc)", "assay": "Prophylaxis assay, single IV dose 6 hours before Pb-Luc sporozoite infection", "format": "in vivo, mice", "details": "single dose 15 mg/kg 6 hours before infection; after 22 days", "method": "as §1, §2, §3\nInfection was initiated using 100,000 P. berghei luc sporozoites (Pb-Luc). The drugs were administered IV at 50 mg/kg, single dose 6 hours prior. I: infected, UI: uninfected.\nas §4, §5", "values": [{"smiles": "CC1(C)c2nc(-c3ccc(F)cc3)c(Nc3ccc(Cl)cc3)n2CCN1C(=O)CN", "note": "[GNF179, reference compound]", "Condition of mice after prophylactic treatment": "still healthy and alive"}]}]}
